Test results: patent US20090061515A1, “Methods of inhibiting or suppressing cellular proliferation” (priority 2007, published 2009)

Tests used:
Assay type in all cases: cell-based
[1] = tested on: human Glioblastoma/Astrocytoma U87 cells; experiment: Cell migration after 48 hours exposure, U87 (Example 6); details: U87, 10 mg/ml and 1 mg/ml
Method: (§1) Evaluation of the effects of 5,6-dihydroxy-hexan-2-one on human umbilical vein endothelial cells (HUVEC) and Glioblastoma/Astrocytoma cells U87 cellular proliferation and migration during 120 hours following 48 hour exposure to 5,6-dihydroxy-hexan-2-one at concentration of 10 mg/ml, 1 mg/ml, 100 micrograms/ml. Controls were cells not exposed to the agent.
(§2) In order to further explore the effects of this compound, experiments to evaluate the dose-effect response on the antiproliferative effect and on cell migration were conducted on two cell lines, human umbilical vein endothelial cells (HUVEC) and Glioblastoma/Astrocytoma cells (U87), over 120 hours after 48 hours of exposure to the compound.
FIGS. 24(a)-(l) are pictures that visually display the migration over time of human Glioblastoma/Astrocytoma U87 cells after 48 hours exposure to various concentrations of 5,6-dihydroxy-hexan-2-one. Specifically, FIGS. 24(a)-(d) represent the control, FIGS. 24(e)-(h) represent 10 mg/ml, and FIGS. 24(i)-(l) represent 1 mg/ml 5,6-dihydroxy-hexan-2-one. FIGS. 24(a), (e), and (i) represent migration after 2 hours; FIGS. 24(b), (f), and (j) represent migration after 14 hours; FIGS. 24(c), (g), and (k) represent migration after 20 hours; and FIGS. […], (h), and (l) represent migration after 48 hours.

[2] = tested on: human umbilical vein endothelial cells (HUVEC); experiment: CyQuant cell proliferation after 48 hour exposure, HUVEC (Example 6); details: for cell proliferation: 48 hour exposure
Method: as §1, §2
A cell proliferation assay available under the trade designation CyQuant from Invitrogen Corporation (Carlsbad, Calif.) determines the density of cells in culture by using a green fluorescent dye which fluoresces when bound to cellular nucleic acids.

[3] = tested on: Normal Human Dermal Fibroblast (NHDF) cells; experiment: Cell proliferation and viability assays (CyQuant, CellTiter-Glo, CellTiter 96), NHDF (Example 5); details: 48 hours
Excerpt: Multiple assays were used to test a variety of cellular properties expressed after exposure of different cells types to 5,6-dihydroxy-hexan-2-one. A cell proliferation assay available under the trade designation CyQuant from Invitrogen Corporation (Carlsbad, Calif.) determines the density of cells in culture by using a green fluorescent dye which fluoresces when bound to cellular nucleic acids. The amount of nucleic acid present is proportional to the amount of living cells in culture. […]
The amount of ATP present is proportional to the measured amount of a luminescent signal and therefore the amount of viable cells. […] The absorbance read is proportional to the amount of metabolic activity present in the cells.
Normal human dermal fibroblast (NHDF) cells and coronary artery smooth muscle cells (CASMC) in culture were exposed to 5,6-dihydroxy-hexan-2-one at concentrations of 10 microgram/ml, 1 mg/ml, and 10 mg/ml, for 48 hours, after which the cell culture wells were analyzed for cell proliferation and viability. […] FIG. 17 is a graphical representation of fibroblast cell numbers measured after 48 hours exposure to different concentrations of 5,6-dihydroxy-hexan-2-one. FIG. 18 is a graphical representation of smooth muscle cell numbers measured after 48 hours exposure to different concentrations of 5,6-dihydroxy-hexan-2-one. […]

SMILES: CC(=O)CCC(O)CO (stereo not drawn) [5,6-dihydroxy-hexan-2-one]
- cell migration [1]: did not shown differences
- cell proliferation ([2]; 10 mg/ml): antiproliferative effects
- time after withdrawal at which inhibitory effect was still observed ([2]; 10 mg/ml, after 48 hour exposure): ≥ 120 h
- cell proliferation ([2]; lowest concentration evaluated (100 micrograms/ml)): no antiproliferative effects
- cell proliferation ([3]; 10 mg/ml): inhibition of cell proliferation
- cell proliferation ([3]; other concentrations (10 microgram/ml, 1 mg/ml)): did not show this effect
